Test results taken from article PMC7265429, “Characterization of a new small-molecule inhibitor of HDAC6 in glioblastoma” (Cell Death & Disease, 2020).

Tested on: GNS166 cells
Test: Microarray whole-transcriptome gene expression analysis
Type: cell-based, human
Method: Whole-transcriptome analysis was performed from 300 ng of RNA using HuGene-2_0-st-v1 expression array (Affymetrix), which covers 48,226 transcripts. Raw data were first checked for quality purposes through the Affymetrix® Expression Console™ Software v1.4.1 and TAC software v4.0. Then, data were normalized using the Robust Multi-array Average (RMA) and analyzed by Limma tool. Probesets with FDR-corrected p-values smaller than 0.05 were selected. Functional enrichment on Gene Ontology (GO) biological processes was performed on a smaller subset of the differentially expressed genes (corrected p-value < 0.001) by means of Broad Institute GSEA. […] The data that support this study have been deposited in NCBI´s Gene Expression Omnibus and are accessible through GEO series accession number GSE143887.

[1] = sheet DMSO-SAHA_DOWN, microarray

O=C(CCCCCCC(=O)Nc1ccccc1)NO [SAHA, Suberoylanilide hydroxamic acid]
logFC ZNF85 (DMSO vs SAHA, downregulated, transcript TC1900007502.hg.1): -1.299 | logFC ZNF254 (DMSO vs SAHA, downregulated, transcript TC1900007622.hg.1): -1.436 | logFC AXL (DMSO vs SAHA, downregulated, transcript TC1900008143.hg.1): -2.335 | logFC KEAP1 (DMSO vs SAHA, downregulated, transcript TC1900009630.hg.1): -1.437 | logFC EMP3 (DMSO vs SAHA, downregulated, transcript TC1900011774.hg.1): -1.798 | logFC UBE2C (DMSO vs SAHA, downregulated, transcript TC2000007503.hg.1): -1.95 | logFC JPH2 (DMSO vs SAHA, downregulated, transcript TC2000009178.hg.1): -1.382 | logFC ZFP64 (DMSO vs SAHA, downregulated, transcript TC2000009469.hg.1): -1.251 | logFC AURKA (DMSO vs SAHA, downregulated, transcript TC2000009550.hg.1): -1.686 | logFC UCKL1 (DMSO vs SAHA, downregulated, transcript TC2000009848.hg.1): -1.222 | logFC MX1 (DMSO vs SAHA, downregulated, transcript TC2100007208.hg.1): -1.686 | logFC COL6A1 (DMSO vs SAHA, downregulated, transcript TC2100007446.hg.1): -1.16 | logFC SUMO3 (DMSO vs SAHA, downregulated, transcript TC2100008385.hg.1): -1.431 | logFC TRIOBP (DMSO vs SAHA, downregulated, transcript TC2200007313.hg.1): -1.456 | logFC MICALL1 (DMSO vs SAHA, downregulated, transcript TC2200007324.hg.1): -1.322 | logFC ZC3H7B (DMSO vs SAHA, downregulated, transcript TC2200007467.hg.1): -1.779 | logFC GTSE1 (DMSO vs SAHA, downregulated, transcript TC2200007662.hg.1): -1.615 | logFC TXNRD2 (DMSO vs SAHA, downregulated, transcript TC2200008001.hg.1): -1.47 | logFC PATZ1 (DMSO vs SAHA, downregulated, transcript TC2200008477.hg.1): -1.5057 | logFC NDUFA6 (DMSO vs SAHA, downregulated, transcript TC2200008859.hg.1): -1.148 | logFC APOBEC3B (DMSO vs SAHA, downregulated, transcript TC2200009270.hg.1): -1.723 | logFC APOBEC3C (DMSO vs SAHA, downregulated, transcript TC2200009271.hg.1): -1.685 | logFC RBX1 (DMSO vs SAHA, downregulated, transcript TC2200009278.hg.1): -1.233 | logFC TRMU (DMSO vs SAHA, downregulated, transcript TC2200009288.hg.1): -1.487 | logFC KIF15 (DMSO vs SAHA, downregulated, transcript TSUnmapped00000255.hg.1): -1.857 | logFC KIF15 (DMSO vs SAHA, downregulated, transcript TSUnmapped00000627.hg.1): -1.713 | logFC AES (transcript TC1900009272.hg.1) [1]: -1.167 | logFC APOBEC3G (transcript TC2200009274.hg.1) [1]: -1.162 | logFC ATF7 (transcript TC1200010809.hg.1) [1]: -0.8995 | logFC ATG4D (transcript TC1900006989.hg.1) [1]: -0.9381 | logFC ATP5G2 (transcript TC1200012798.hg.1) [1]: -0.8974 | logFC ATXN10 (transcript TC2200007626.hg.1) [1]: -0.8219 | logFC AVEN (transcript TC1500008971.hg.1) [1]: -1.4 | logFC B4GALT2 (transcript TC0100008082.hg.1) [1]: -1.044 | logFC BORCS7-ASMT (transcript TC1000012497.hg.1) [1]: -1.471 | logFC C1QBP (transcript TC1700012341.hg.1) [1]: -0.864 | logFC CARD8 (transcript TC1900011061.hg.1) [1]: -1.473 | logFC CD109 (transcript TC0600008539.hg.1) [1]: -1.058 | logFC CDC25B (transcript TC2000006559.hg.1) [1]: -1.166 | logFC COMT (transcript TC2200006623.hg.1) [1]: -1.056 | logFC CXCL14 (transcript TC0500012107.hg.1) [1]: -1.597 | logFC DENND2A (transcript TC0700012813.hg.1) [1]: -1.223 | logFC EOGT (transcript TC0300011448.hg.1) [1]: -1.387 | logFC FAM65B (transcript TC0600014247.hg.1) [1]: -1.186 | logFC FAM83D (transcript TC2000007341.hg.1) [1]: -1.0787 | logFC FBXO32 (transcript TC0800011683.hg.1) [1]: -1.239 | logFC FHL2 (transcript TC0200013750.hg.1) [1]: -1.323 | logFC GYG1 (transcript TC0300009126.hg.1) [1]: -0.8272 | logFC H2AFY2 (transcript TC1000007913.hg.1) [1]: -1.438 | logFC HGSNAT (transcript TC0800007460.hg.1) [1]: -1.179 | logFC HIST1H1E (transcript TC0600007273.hg.1) [1]: -0.9296 | logFC HIST1H2AK (transcript TC0600011228.hg.1) [1]: -1.094 | logFC HIST1H3G (transcript TC0600011142.hg.1) [1]: -1.091 | logFC HIST2H2AB (transcript TC0100015711.hg.1) [1]: -1.264 | logFC HMGB2 (transcript TC0400012432.hg.1) [1]: -1.248 | logFC HNF4G (transcript TC0800008002.hg.1) [1]: -1.665 | logFC HOXB6 (transcript TC1700012433.hg.1) [1]: -0.9482 | logFC HOXB7 (transcript TC1700012434.hg.1) [1]: -1.178 | logFC HSF2BP (transcript TC2100008306.hg.1) [1]: -1.094 | logFC KAT7 (transcript TC1700008216.hg.1) [1]: -0.9549 | logFC KIF15 (transcript TSUnmapped00000127.hg.1) [1]: -1.52 | logFC KIF15 (transcript TSUnmapped00000190.hg.1) [1]: -1.209 | logFC KIF15 (transcript TSUnmapped00000242.hg.1) [1]: -1.3548 | logFC KPNA2 (transcript TC1700008719.hg.1) [1]: -0.848 | logFC KRTCAP2 (transcript TC0100018498.hg.1) [1]: -0.9489 | logFC LOXL1 (transcript TC1500007829.hg.1) [1]: -1.906 | logFC LRRC41 (transcript TC0100014050.hg.1) [1]: -1.4599 | logFC MCPH1 (transcript TC0800006557.hg.1) [1]: -1.179 | logFC MRPL15 (transcript TC0800007653.hg.1) [1]: -1.399 | logFC MSRA (transcript TC0800006697.hg.1) [1]: -0.9684 | logFC MYBL2 (transcript TC2000007438.hg.1) [1]: -1.297 | logFC NCAPG2 (transcript TC0700013290.hg.1) [1]: -1.083 | logFC NFKB1 (transcript TC0400008271.hg.1) [1]: -1.316 | logFC NQO1 (transcript TC1600010732.hg.1) [1]: -1.465 | logFC PKNOX1 (transcript TC2100007278.hg.1) [1]: -1.264 | logFC PRRC2A (transcript TC0600007599.hg.1) [1]: -0.9194 | logFC PTPRE (transcript TC1000009296.hg.1) [1]: -0.9151 | logFC PTRHD1 (transcript TC0200011990.hg.1) [1]: -0.8388 | logFC RHNO1 (transcript TC1200012573.hg.1) [1]: -1.078 | logFC RUNX2 (transcript TC0600008146.hg.1) [1]: -1.088 | logFC SAMD9L (transcript TC0700011797.hg.1) [1]: -1.884 | logFC SCG2 (transcript TC0200015865.hg.1) [1]: -0.9206 | logFC SLC47A2 (transcript TC1700010035.hg.1) [1]: -1.04 | logFC SMARCB1 (transcript TC2200006862.hg.1) [1]: -1.487 | logFC TAPBP (transcript TC0600011536.hg.1) [1]: -0.9356 | logFC TAS2R13 (transcript TC1200009921.hg.1) [1]: -1.256 | logFC TFDP1 (transcript TC1300008144.hg.1) [1]: -0.8938 | logFC TK2 (transcript TC1600011551.hg.1) [1]: -1.009 | logFC TNFRSF12A (transcript TC1600006652.hg.1) [1]: -0.9964
